This note sets out measurements from ChEMBL document CHEMBL3227948, “Preparation and antidiabetic activity of some sulfonylurea derivatives of 3,5-disubstituted pyrazoles” (1979).

Molecules are shown by their SMILES. Some results are limits rather than exact numbers.

What all share (type): functional
Experiment [1] concerns Mus musculus. Kind of experiment: Hypoglycemic activity in alloxan-induced diabetic albino mouse assessed as decrease in blood glucose level at 1 mmol/kg, po administered 6 days after alloxan injection measured after 1 to 3 hrs by automated glucose oxidase method relative to control.
For experiment [2], the system named is Mus musculus. Kind of experiment: Hypoglycemic activity in alloxan-induced diabetic albino mouse assessed as decrease in blood glucose level at 0.4 mmol/kg, po administered 6 days after alloxan injection measured after 2 to 4 hrs by automated glucose oxidase method relative to control.
Experiment [3] concerns Mus musculus. Kind of experiment: Hypoglycemic activity in alloxan-induced diabetic albino mouse assessed as decrease in blood glucose level at 1 mmol/kg, po administered 6 days after alloxan injection measured after 2 to 4 hrs by automated glucose oxidase method relative to control.

Consider `Cc1cc(C)n(-c2ccc(S(=O)(=O)N3CCC(=O)N(Cc4ccccc4)C3=S)cc2)n1`, for which the inhibition in vivo (as a rule, the change of the read-out against control, counted positive when it falls) at 1000 µmol/kg with Mus musculus [1] is 18%.
For the molecule `CCNC(=O)NS(=O)(=O)c1ccc(-n2nc(C)cc2C)cc1`, the inhibition in vivo at 400 µmol/kg in the experiment on Mus musculus [2] was less than 1%.
For the molecule `CCCNC(=O)NS(=O)(=O)c1ccc(-n2nc(C)cc2C)cc1`, in the experiment on Mus musculus [2], the inhibition in vivo at 400 µmol/kg was less than 1%.
As for `CCCCNC(=O)NS(=O)(=O)c1ccc(-n2nc(C)cc2C)cc1`, the inhibition in vivo at 400 µmol/kg in the experiment on Mus musculus [2] was found to be 2%.
As to `Cc1cc(C)n(-c2ccc(S(=O)(=O)NC(=O)NC3CCCCC3)cc2)n1`, the inhibition in vivo at 400 µmol/kg with Mus musculus [2] came to 10%.
For the molecule `Cc1cc(C)n(-c2ccc(S(=O)(=O)NC(=O)NCc3ccccc3)cc2)n1`, in the experiment on Mus musculus [2], the inhibition in vivo at 400 µmol/kg is less than 1%.
Take `Cc1cc(C)n(-c2ccc(S(=O)(=O)NC(=O)NNC(=N)N)cc2)n1`: in the experiment with Mus musculus [2], the inhibition in vivo at 400 µmol/kg is 3%.
As to `CCNC(=O)NS(=O)(=O)c1ccc(-n2nc(C(=O)O)cc2C)cc1`, in the experiment with Mus musculus [2], the inhibition in vivo at 400 µmol/kg came to 0%.
For the molecule `CCCNC(=O)NS(=O)(=O)c1ccc(-n2nc(C(=O)O)cc2C)cc1`, the inhibition in vivo at 400 µmol/kg in the experiment with Mus musculus [2] is 1%.
As for `CCCCNC(=O)NS(=O)(=O)c1ccc(-n2nc(C(=O)O)cc2C)cc1`, in the experiment on Mus musculus [2], the inhibition in vivo at 400 µmol/kg was determined as 2%.
`Cc1cc(C(=O)O)nn1-c1ccc(S(=O)(=O)NC(=O)NC2CCCCC2)cc1`: the inhibition in vivo at 400 µmol/kg with Mus musculus [2] worked out at 1%.
`Cc1cc(C(=O)O)nn1-c1ccc(S(=O)(=O)NC(=O)NCc2ccccc2)cc1`: the inhibition in vivo at 400 µmol/kg in the experiment with Mus musculus [2] was found to be 0%.
As for `CCNC(=S)NS(=O)(=O)c1ccc(-n2nc(C)cc2C)cc1`, the inhibition in vivo at 400 µmol/kg with Mus musculus [2] was 0%.
For the molecule `C=CCNC(=S)NS(=O)(=O)c1ccc(-n2nc(C)cc2C)cc1`, in the experiment on Mus musculus [2], the inhibition in vivo at 400 µmol/kg is -1%.
Take `CCCNC(=S)NS(=O)(=O)c1ccc(-n2nc(C)cc2C)cc1`: the inhibition in vivo at 400 µmol/kg with Mus musculus [2] is less than 1%.
`CCCCNC(=S)NS(=O)(=O)c1ccc(-n2nc(C)cc2C)cc1`: the inhibition in vivo at 400 µmol/kg with Mus musculus [2] was 1%.
Regarding `Cc1cc(C)n(-c2ccc(S(=O)(=O)NC(=S)NC3CCCCC3)cc2)n1`, in the experiment with Mus musculus [2], the inhibition in vivo at 400 µmol/kg is less than 2%.
On to `Cc1cc(C)n(-c2ccc(S(=O)(=O)NC(=S)NCc3ccccc3)cc2)n1`, for which the inhibition in vivo at 400 µmol/kg in the experiment with Mus musculus [2] is 0%.
Regarding `Cc1cc(C)n(-c2ccc(S(=O)(=O)NC(=S)Nc3ccccc3)cc2)n1`, in the experiment on Mus musculus [2], the inhibition in vivo at 400 µmol/kg was -3%.
Same read-out and setting: in the case of `CCNC(=S)NS(=O)(=O)c1ccc(-n2nc(C(=O)O)cc2C)cc1` it was -2%; in that of `C=CCNC(=S)NS(=O)(=O)c1ccc(-n2nc(C(=O)O)cc2C)cc1`, -6%; in that of `CCCNC(=S)NS(=O)(=O)c1ccc(-n2nc(C(=O)O)cc2C)cc1`, less than 1%.
On the same count and under the same terms, the value for `CCCCNC(=S)NS(=O)(=O)c1ccc(-n2nc(C(=O)O)cc2C)cc1` was less than 1%; that for `Cc1cc(C(=O)O)nn1-c1ccc(S(=O)(=O)NC(=S)NC2CCCCC2)cc1` was 1%; that for `Cc1cc(C(=O)O)nn1-c1ccc(S(=O)(=O)NC(=S)NCc2ccccc2)cc1` was less than 2%.
As to `Cc1cc(C(=O)O)nn1-c1ccc(S(=O)(=O)NC(=S)Nc2ccccc2)cc1`, in the experiment on Mus musculus [2], the inhibition in vivo at 400 µmol/kg turned out to be 0%.
As for `CCN1C(=O)CN(S(=O)(=O)c2ccc(-n3nc(C)cc3C)cc2)C1=S`, in the experiment on Mus musculus [3], the inhibition in vivo at 1000 µmol/kg is less than 1%.
Take `CCCN1C(=O)CN(S(=O)(=O)c2ccc(-n3nc(C)cc3C)cc2)C1=S`: the inhibition in vivo at 1000 µmol/kg with Mus musculus [3] was less than 1%.
Regarding `CCCCN1C(=O)CN(S(=O)(=O)c2ccc(-n3nc(C)cc3C)cc2)C1=S`, the inhibition in vivo at 1000 µmol/kg in the experiment with Mus musculus [3] amounted to 1%.
In the case of `Cc1cc(C)n(-c2ccc(S(=O)(=O)N3CC(=O)N(C4CCCCC4)C3=S)cc2)n1`, in the experiment with Mus musculus [3], the inhibition in vivo at 1000 µmol/kg is 2%.
Consider `Cc1cc(C)n(-c2ccc(S(=O)(=O)N3CC(=O)N(Cc4ccccc4)C3=S)cc2)n1`, for which the inhibition in vivo at 1000 µmol/kg in the experiment with Mus musculus [3] was 1%.
On the same count and under the same terms, in the case of `Cc1cc(C)n(-c2ccc(S(=O)(=O)N3CC(=O)N(c4ccccc4)C3=S)cc2)n1` it was 8%; in that of `CCN1C(=O)CN(S(=O)(=O)c2ccc(-n3nc(C(=O)O)cc3C)cc2)C1=S`, less than 1%.
On to `C=CCN1C(=O)CN(S(=O)(=O)c2ccc(-n3nc(C(=O)O)cc3C)cc2)C1=S`, for which the inhibition in vivo at 1000 µmol/kg in the experiment on Mus musculus [3] was less than 1%.
Regarding `CCCN1C(=O)CN(S(=O)(=O)c2ccc(-n3nc(C(=O)O)cc3C)cc2)C1=S`, the inhibition in vivo at 1000 µmol/kg in the experiment with Mus musculus [3] is 1%.
Take `CCCCN1C(=O)CN(S(=O)(=O)c2ccc(-n3nc(C(=O)O)cc3C)cc2)C1=S`: the inhibition in vivo at 1000 µmol/kg with Mus musculus [3] is 1%.
With `Cc1cc(C(=O)O)nn1-c1ccc(S(=O)(=O)N2CC(=O)N(C3CCCCC3)C2=S)cc1`, the inhibition in vivo at 1000 µmol/kg with Mus musculus [3] amounted to 1%.
For the molecule `Cc1cc(C(=O)O)nn1-c1ccc(S(=O)(=O)N2CC(=O)N(Cc3ccccc3)C2=S)cc1`, the inhibition in vivo at 1000 µmol/kg with Mus musculus [3] is less than 1%.
Turning to `CCN1C(=O)CCN(S(=O)(=O)c2ccc(-n3nc(C)cc3C)cc2)C1=S`, the inhibition in vivo at 1000 µmol/kg in the experiment with Mus musculus [1] was determined as 4%.
For `CCCN1C(=O)CCN(S(=O)(=O)c2ccc(-n3nc(C)cc3C)cc2)C1=S`, the inhibition in vivo at 1000 µmol/kg in the experiment with Mus musculus [1] turned out to be 1%.
Still for that read-out and setting: the value for `CCCCN1C(=O)CCN(S(=O)(=O)c2ccc(-n3nc(C)cc3C)cc2)C1=S` was 1%.
Turning to `Cc1cc(C)n(-c2ccc(S(=O)(=O)N3CCC(=O)N(C4CCCCC4)C3=S)cc2)n1`, in the experiment on Mus musculus [1], the inhibition in vivo at 1000 µmol/kg stood at 4%.
In the case of `Cc1cc(C)n(-c2ccc(S(=O)(=O)N3CCC(=O)N(c4ccccc4)C3=S)cc2)n1`, the inhibition in vivo at 1000 µmol/kg in the experiment on Mus musculus [1] was less than 1%.
Still for that read-out and setting: in the case of `CCN1C(=O)CCN(S(=O)(=O)c2ccc(-n3nc(C(=O)O)cc3C)cc2)C1=S` it was 1%; in that of `C=CCN1C(=O)CCN(S(=O)(=O)c2ccc(-n3nc(C(=O)O)cc3C)cc2)C1=S`, 0%; in that of `CCCN1C(=O)CCN(S(=O)(=O)c2ccc(-n3nc(C(=O)O)cc3C)cc2)C1=S`, less than 1%.
Take `CCCCN1C(=O)CCN(S(=O)(=O)c2ccc(-n3nc(C(=O)O)cc3C)cc2)C1=S`: the inhibition in vivo at 1000 µmol/kg with Mus musculus [1] turned out to be 2%.
For the molecule `Cc1cc(C(=O)O)nn1-c1ccc(S(=O)(=O)N2CCC(=O)N(C3CCCCC3)C2=S)cc1`, the inhibition in vivo at 1000 µmol/kg with Mus musculus [1] amounted to 2%.
As for `Cc1cc(C(=O)O)nn1-c1ccc(S(=O)(=O)N2CCC(=O)N(Cc3ccccc3)C2=S)cc1`, the inhibition in vivo at 1000 µmol/kg in the experiment on Mus musculus [1] came to 16%.
Still for that read-out and setting: the value for `Cc1cc(C(=O)O)nn1-c1ccc(S(=O)(=O)N2CCC(=O)N(c3ccccc3)C2=S)cc1` was 1%.
For `C=CCN1C(=O)CN(S(=O)(=O)c2ccc(-n3nc(C)cc3C)cc2)C1=S`, the inhibition in vivo at 1000 µmol/kg in the experiment on Mus musculus [3] was found to be 4%.
Regarding `N=C(N)NC(=N)NCCc1ccccc1` [PHENFORMIN], the inhibition in vivo at 1000 µmol/kg with Mus musculus [1] and with Mus musculus [3] was 21% each time.
